Test results reported in ChEMBL document CHEMBL4219063, “New photodynamic molecular beacons (PMB) as potential cancer-targeted agents in PDT” (Bioorg Med Chem, 2018).
Activity calls are given as the source filed them. The calls are words filed in the database; no cut-off is given here. Square brackets hold non-standard residues; d marks the D form. Peptide text beside a SMILES is read from it. * marks the point of attachment. ξ: configuration not given here. Benzoyl(4-TriPhPorphyrinyl) = O=C(c1ccc(-c2c3nc(c(-c4ccccc4)c4ccc([nH]4)c(-c4ccccc4)c4nc(c(-c5ccccc5)c5ccc2[nH]5)C=C4)C=C3)cc1)*; Pyropheophorbide(a) = C=Cc1c(C)c2cc3nc(c4c5[nH]c(cc6nc(cc1[nH]2)C(C)=C6CC)c(C)c5C(=O)C4)[C@@H](CCC(=O)*)[C@@H]3C; X2 = COc1cc(/N=N/c2cc3c4c(c2OCCCCCC(=O)*)CCCN4CCC3)c(OC)cc1/N=N/c1ccc([N+](=O)[O-])cc1; X1 = CCN(CC)c1ccc2nc3ccc(/N=N/c4ccc(N(C)CCCC(=O)*)cc4)cc3[n+](-c3ccccc3)c2c1; ξThr(3R) = C[C@@H](O)C(N)C(=O)O; AEEA = NCCOCCOCC(=O)O

Columns and labels:
[1] = target: MMP14 (Homo sapiens, UniProt P50281); assay: Substrate activity at MMP14 (unknown origin) assessed as enzyme-mediated substrate hydrolysis at 100 umol/L after 8 hrs by UV-HPLC method relative to control; type: ADME; conditions: read-out: Drug metabolism
[2] = target: MMP2 (Homo sapiens, UniProt P08253); assay: Substrate activity at MMP2 (unknown origin) assessed as enzyme-mediated substrate hydrolysis at 100 umol/L after 8 hrs by UV-HPLC method relative to control; type: ADME; conditions: read-out: Drug metabolism
[3] = In vitro photodynamic activity in ethanol assessed as decrease in singlet oxygen production by spectrophotometry; type: functional; design: scale not given: the % may be the effect or the level left
[4] = In vitro photodynamic activity in ethanol assessed as fluorescence quenching by time-correlated single photon counting method; type: functional
[5] = target: MMP9 (Homo sapiens, UniProt P14780); assay: Substrate activity at MMP9 (unknown origin) assessed as enzyme-mediated substrate hydrolysis at 100 umol/L after 8 hrs by UV-HPLC method relative to control; type: ADME; conditions: read-out: Drug metabolism
[6] = target: Matrix metalloproteinase-14 (Mus musculus) (UniProt P53690); assay: Substrate activity at MT1-MMP in mouse B16F1 cells assessed as enzyme-mediated substrate cleavage at 100 uM after 24 hrs by HPLC analysis; type: cell-based

Sequence of MMP2 (P08253 whole entry): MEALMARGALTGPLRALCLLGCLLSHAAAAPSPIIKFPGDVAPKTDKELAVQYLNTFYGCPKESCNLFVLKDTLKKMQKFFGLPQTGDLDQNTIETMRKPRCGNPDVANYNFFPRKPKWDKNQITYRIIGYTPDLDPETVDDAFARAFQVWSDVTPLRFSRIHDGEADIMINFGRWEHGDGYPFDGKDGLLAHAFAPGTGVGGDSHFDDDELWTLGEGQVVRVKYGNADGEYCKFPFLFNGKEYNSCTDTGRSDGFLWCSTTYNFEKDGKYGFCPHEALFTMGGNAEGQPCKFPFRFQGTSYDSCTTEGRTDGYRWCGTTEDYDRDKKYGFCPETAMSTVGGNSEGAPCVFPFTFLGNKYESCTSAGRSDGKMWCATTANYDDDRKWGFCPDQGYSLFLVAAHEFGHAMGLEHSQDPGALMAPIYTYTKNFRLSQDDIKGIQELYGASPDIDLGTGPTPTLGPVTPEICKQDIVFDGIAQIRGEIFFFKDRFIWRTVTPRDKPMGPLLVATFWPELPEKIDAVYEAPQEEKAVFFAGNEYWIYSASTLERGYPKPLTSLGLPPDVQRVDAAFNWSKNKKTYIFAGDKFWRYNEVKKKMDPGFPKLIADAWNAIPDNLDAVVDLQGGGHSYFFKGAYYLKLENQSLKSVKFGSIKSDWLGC
Sequence of MMP9 (P14780 whole entry): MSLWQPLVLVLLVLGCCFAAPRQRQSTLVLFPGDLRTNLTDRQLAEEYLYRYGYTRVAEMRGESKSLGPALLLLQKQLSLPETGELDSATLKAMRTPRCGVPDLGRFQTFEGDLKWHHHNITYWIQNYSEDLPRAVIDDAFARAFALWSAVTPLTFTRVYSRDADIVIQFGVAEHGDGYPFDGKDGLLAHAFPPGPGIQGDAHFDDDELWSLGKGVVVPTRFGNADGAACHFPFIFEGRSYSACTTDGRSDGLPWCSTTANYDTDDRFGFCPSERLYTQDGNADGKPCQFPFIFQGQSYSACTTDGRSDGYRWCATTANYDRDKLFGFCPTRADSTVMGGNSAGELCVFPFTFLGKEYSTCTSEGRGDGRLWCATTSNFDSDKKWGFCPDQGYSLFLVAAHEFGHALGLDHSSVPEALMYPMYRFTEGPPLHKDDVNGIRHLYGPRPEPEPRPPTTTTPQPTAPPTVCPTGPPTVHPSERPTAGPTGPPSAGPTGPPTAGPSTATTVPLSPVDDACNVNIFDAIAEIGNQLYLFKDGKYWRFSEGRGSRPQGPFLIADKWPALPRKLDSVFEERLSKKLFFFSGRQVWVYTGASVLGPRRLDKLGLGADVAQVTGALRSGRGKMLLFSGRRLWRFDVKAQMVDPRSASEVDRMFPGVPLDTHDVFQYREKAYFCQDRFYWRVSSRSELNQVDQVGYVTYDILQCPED

Molecule | metabolised at 8 h, 100 µM [1] [%] | metabolised at 8 h, 100 µM [2] [%] | Activity [3] [%] | Activity [4] [%] | also measured
H-GRIGFLRTAKGG-OH | 99 | 26 | – | – | –
CC[C@H](C)[C@H](NC(=O)[C@H](CCCNC(=N)N)NC(=O)CNC(=O)COCCOCCNC(=O)c1ccc(-c2c3nc(c(-c4ccccc4)c4ccc([nH]4)c(-c4ccccc4)c4nc(c(-c5ccccc5)c5ccc2[nH]5)C=C4)C=C3)cc1)C(=O)NCC(=O)N[C@@H](Cc1ccccc1)C(=O)N[C@@H](CC(C)C)C(=O)N[C@@H](CCCNC(=N)N)C(=O)N[C@H](C(=O)N[C@@H](C)C(=O)N[C@@H](CCCCNC(=O)CCCN(C)c1ccc(/N=N/c2ccc3nc4ccc(N(CC)CC)cc4[n+](-c4ccccc4)c3c2)cc1)C(=O)NCC(=O)NCC(=O)O)[C@@H](C)O ({Benzoyl(4-TriPhPorphyrinyl)-AEEA}-GRIGFLRTAK(X1)GG-OH) | – | – | 100 | 80 | –
CC[C@H](C)[C@H](NC(=O)[C@H](CCCNC(=N)N)NC(=O)CNC(=O)COCCOCCN)C(=O)NCC(=O)N[C@@H](Cc1ccccc1)C(=O)N[C@@H](CC(C)C)C(=O)N[C@@H](CCCNC(=N)N)C(=O)N[C@H](C(=O)N[C@@H](C)C(=O)N[C@@H](CCCCN)C(=O)NCC(=O)NCC(=O)O)[C@@H](C)O (H-[AEEA]GRIGFLRTAKGG-OH) | 100 | 20 | – | – | –
CC[C@H](C)[C@H](NC(=O)[C@H](CCCNC(=N)N)NC(=O)CN)C(=O)NCC(=O)N[C@@H](Cc1ccccc1)C(=O)N[C@@H](CC(C)C)C(=O)N[C@@H](CCCNC(=N)N)C(=O)N[C@H](C(=O)N[C@@H](C)C(=O)N[C@@H](CCCCNC(=O)CCCCCOc1c(/N=N/c2cc(OC)c(/N=N/c3ccc([N+](=O)[O-])cc3)cc2OC)cc2c3c1CCCN3CCC2)C(=O)NCC(=O)NCC(=O)O)[C@@H](C)O | 31 | – | – | – | –
C=Cc1c(C)c2cc3nc(c4c5[nH]c(cc6nc(cc1[nH]2)C(C)=C6CC)c(C)c5C(=O)C4)[C@@H](CCC(=O)NCC(=O)N[C@@H](CCCNC(=N)N)C(=O)N[C@H](C(=O)NCC(=O)N[C@@H](Cc1ccccc1)C(=O)N[C@@H](CC(C)C)C(=O)N[C@@H](CCCNC(=N)N)C(=O)N[C@H](C(=O)N[C@@H](C)C(=O)N[C@@H](CCCCN)C(=O)NCC(=O)NCC(=O)O)[C@@H](C)O)[C@@H](C)CC)[C@@H]3C ({Pyropheophorbide(a)}-GRIGFLRTAKGG-OH) | – | – | – | – | metabolised at 8 h, 100 µM [5]: 5%
C=Cc1c(C)c2cc3nc(c4c5[nH]c(cc6nc(cc1[nH]2)C(C)=C6CC)c(C)c5C(=O)C4)[C@@H](CCC(=O)NCC(=O)N[C@@H](CCCNC(=N)N)C(=O)N[C@H](C(=O)NCC(=O)N[C@@H](Cc1ccccc1)C(=O)N[C@@H](CC(C)C)C(=O)N[C@@H](CCCNC(=N)N)C(=O)N[C@H](C(=O)N[C@@H](C)C(=O)N[C@@H](CCCCNC(=O)CCCN(C)c1ccc(/N=N/c2ccc4nc5ccc(N(CC)CC)cc5[n+](-c5ccccc5)c4c2)cc1)C(=O)NCC(=O)NCC(=O)O)[C@@H](C)O)[C@@H](C)CC)[C@@H]3C ({Pyropheophorbide(a)}-GRIGFLRTAK(X1)GG-OH) | – | – | 100 | 93 | –
CC[C@H](C)[C@H](NC(=O)[C@H](CCCNC(=N)N)NC(=O)CNC(=O)c1ccc(-c2c3nc(c(-c4ccccc4)c4ccc([nH]4)c(-c4ccccc4)c4nc(c(-c5ccccc5)c5ccc2[nH]5)C=C4)C=C3)cc1)C(=O)NCC(=O)N[C@@H](Cc1ccccc1)C(=O)N[C@@H](CC(C)C)C(=O)N[C@@H](CCCNC(=N)N)C(=O)N[C@H](C(=O)N[C@@H](C)C(=O)N[C@@H](CCCCNC(=O)CCCCCOc1c(/N=N/c2cc(OC)c(/N=N/c3ccc([N+](=O)[O-])cc3)cc2OC)cc2c3c1CCCN3CCC2)C(=O)NCC(=O)NCC(=O)O)[C@@H](C)O ({Benzoyl(4-TriPhPorphyrinyl)}-GRIGFLRTAK(X2)GG-OH) | – | – | 80 | 90 | Activity [6]: Active
CC[C@H](C)[C@H](NC(=O)[C@H](CCCNC(=N)N)NC(=O)CNC(=O)COCCOCCNC(=O)c1ccc(-c2c3nc(c(-c4ccccc4)c4ccc([nH]4)c(-c4ccccc4)c4nc(c(-c5ccccc5)c5ccc2[nH]5)C=C4)C=C3)cc1)C(=O)NCC(=O)N[C@@H](Cc1ccccc1)C(=O)N[C@@H](CC(C)C)C(=O)N[C@@H](CCCNC(=N)N)C(=O)N[C@H](C(=O)N[C@@H](C)C(=O)N[C@@H](CCCCN)C(=O)NCC(=O)NCC(=O)O)[C@@H](C)O ({Benzoyl(4-TriPhPorphyrinyl)-AEEA}-GRIGFLRTAKGG-OH) | – | 3 | – | – | metabolised at 8 h, 100 µM [5]: 2%
CC[C@H](C)[C@H](NC(=O)[C@H](CCCNC(=N)N)NC(=O)CNC(=O)c1ccc(-c2c3nc(c(-c4ccccc4)c4ccc([nH]4)c(-c4ccccc4)c4nc(c(-c5ccccc5)c5ccc2[nH]5)C=C4)C=C3)cc1)C(=O)NCC(=O)N[C@@H](Cc1ccccc1)C(=O)N[C@@H](CC(C)C)C(=O)N[C@@H](CCCNC(=N)N)C(=O)N[C@H](C(=O)N[C@@H](C)C(=O)N[C@@H](CCCCNC(=O)CCCN(C)c1ccc(/N=N/c2ccc3nc4ccc(N(CC)CC)cc4[n+](-c4ccccc4)c3c2)cc1)C(=O)NCC(=O)NCC(=O)O)[C@@H](C)O ({Benzoyl(4-TriPhPorphyrinyl)}-GRIGFLRTAK(X1)GG-OH) | – | – | 100 | 80 | –
C=Cc1c(C)c2cc3nc(c4c5[nH]c(cc6nc(cc1[nH]2)C(C)=C6CC)c(C)c5C(=O)C4)[C@@H](CCC(=O)NCC(=O)N[C@@H](CCCNC(=N)N)C(=O)N[C@H](C(=O)NCC(=O)N[C@@H](Cc1ccccc1)C(=O)N[C@@H](CC(C)C)C(=O)N[C@@H](CCCNC(=N)N)C(=O)N[C@H](C(=O)N[C@@H](C)C(=O)N[C@@H](CCCCNC(=O)CCCCCOc1c(/N=N/c2cc(OC)c(/N=N/c4ccc([N+](=O)[O-])cc4)cc2OC)cc2c4c1CCCN4CCC2)C(=O)NCC(=O)NCC(=O)O)[C@@H](C)O)[C@@H](C)CC)[C@@H]3C ({Pyropheophorbide(a)}-GRIGFLRTAK(X2)GG-OH) | – | – | 77 | 88 | –
CC[C@H](C)[C@H](NC(=O)[C@H](CCCNC(=N)N)NC(=O)CN)C(=O)NCC(=O)N[C@@H](Cc1ccccc1)C(=O)N[C@@H](CC(C)C)C(=O)N[C@@H](CCCNC(=N)N)C(=O)NC(C(=O)N[C@@H](C)C(=O)N[C@@H](CCCCNC(=O)CCCN(C)c1ccc(/N=N/c2ccc3nc4ccc(N(CC)CC)cc4[n+](-c4ccccc4)c3c2)cc1)C(=O)NCC(=O)NCC(=O)O)[C@@H](C)O (stereo partly drawn) (H-GRIGFLR[ξThr(3R)]AK(X1)GG-OH) | 86 | 26 | – | – | –
